Assay results reported in patent US20100130619A1, “PHARMACEUTICAL COMPOSITION FOR PARENTERAL ADMINISTRATION OF IDEBENONE” (priority 2008, published 2010).

Assays:
Solubility of Idebenone = type: physicochemical
Source text: The low water solubility of Idebenone makes the task of producing an injectable form very difficult. Use of water miscible solvents (alcohol, propylene glycol, liquid PEG, N-methylpyrrolidone, etc.), where Idebenone dissolves well, is inappropriate due to the immediate precipitation of the drug upon contact with physiological fluids or a water phase. An inclusion complex of Idebenone with cyclodextrin has been described, but it is water dispersible, not soluble and not suitable for injection. The solubility of Idebenone in fixed oils (soy, corn, almond, etc.) is low; drug precipitates from such emulsions during storage, limiting their use for the preparation of injectable forms of […].

cerebrovascular disease = details: nine patients, 90 mg daily; cited from earlier work
[1] = tested on: cultured cortical neurons; details: cited from earlier work
Friedreich's Ataxia = details: cited from earlier work
[2] = tested on: microsomal lipid peroxidation; details: cited from earlier work
[3] = tested on: learning and memory disturbances; details: rats; cited from earlier work
[4] = oral; cited from earlier work

COC1=C(OC)C(=O)C(CCCCCCCCCCO)=C(C)C1=O [Idebenone, 2,3-dimethoxy-5-methyl-6-(10-hydroxydecyl)-1,4-benzoquinone]
solubility in fixed oils (Solubility of Idebenone; fixed oils (soy, corn, almond, etc.)): low | water solubility (Solubility of Idebenone; water): low | EEG and clinical symptoms (cerebrovascular disease): improvements in EEG and clinical symptoms | rescue on delayed application ([1]; applied 30 minutes after the NMDA pulse): rescues cortical neurons | protection against necrotic degeneration ([1]; cultured cortical neurons): protects cultured cortical neurons against necrotic degeneration | marker of oxidative DNA damage (Friedreich's Ataxia; oral 5 mg/kg daily for 8 weeks): significantly decreased | left ventricular enlargement (Friedreich's Ataxia; three patients, 5 mg/kg daily for 4-9 months): reduction of left ventricular enlargement | free radical scavenging ([2]; cell cultures): scavenges a variety of free radical species | microsomal lipid peroxidation ([2]; induced by ADP-iron complexes or organic hydroperoxides): inhibits microsomal lipid peroxidation | learning and memory disturbances [3]: ameliorates learning and memory disturbances | bioavailability [4]: relatively high
